Experimental data taken from patent US4543349A, “Basic heptapeptide vasopressin antagonists” (priority 1984, dated 1985).
Starred links: 1 amine or outer side, 2 acyl side, 3 side chain; linkers in the order of their positions; H or OH if unused. Positions of bridges follow the written chain, without caps; N, C: chain ends. Non-standard residues stand in square brackets, D forms with d. Residues, ends and D or L forms follow the SMILES beside them. *: point of attachment. X1 = O=C(CC1(S[*:2])CCCCC1)[*:1]; Agmatine = N=C(N)NCCCCN*; NH(CH2)5NH2 = NCCCCCN*; NH(CH2)4NH2 = NCCCCN*

Experiments:
[1] = target: T1, vasopressin receptors (V2 -receptors) (Sus scrofa, UniProt P32307); experiment: 3H-vasopressin binding assay, hog kidney medullary membranes; conditions: competitive inhibition of 3H-vasopressin binding, read-out: Swine KB
T1 construct: from tissue; host or cells: hog kidney medullary membranes
Experimental: Antagonistic activity toward the natural antidiuretic hormone (anti-ADH activity) is determined, in vitro, in the medullary tissue of hog or human kidneys and, in vivo, in the hydropenic rat. The in vitro assay procedures for vasopressin stimulated adenylate cyclase activation or vasopression binding activity are described by F. Stassen et al., J. Pharmacology and Experimental Therapeutics, 223, 50-54 (1982).
These values represent total and non-specific binding, respectively.

[2] = system: hydropenic rat; experiment: Hydropenic rat screen (anti-ADH activity in vivo); conditions: dose required to lower urine osmolality to 300 m-Osmoles/kg; intraperitoneal; hydropenic male rats
Experimental: The assay for anti-ADH activity in vivo is the hydropenic rat protocol described below:
Food and water are removed from male rats approximately 18 hours prior to testing. Animals are housed 4 per metabolism cage. At 0 hour, the test compound is administered intraperitoneally to the test group and an equivalent volume of vehicle is administered to both control groups (fasted and non-fasted). Urine volume and osmolality are measured every hour for 4 hours. Test values are recorded as ml of urine excreted (cumulative), mEq/rat electrolyte excreted, mg/rat urea excreted, and osmolality in milli-Osmoles/kg H2 O. A tolerance test is used to determine significance. Ed300 is defined as the dose of compound (μg/kg) required to lower urine osmolality to 300 m-Osmoles/kg.

[3] = target: vasopressin stimulated adenylate cyclase; experiment: Vasopressin stimulated adenylate cyclase activity, hog kidney medullary tissue; format: biochemical; conditions: swine kidney medullary membrane
Experimental: (§1) In the test procedure for assay of adenylate cyclase activity, the amount of ^32 P/cAMP formed in the absence of medullary membrane is determined (blank). The blank value is subtracted from all experimental data. The compound is tested for its effect on basal adenylate cyclase activity and/or on vasopressin stimulated activity. Each determination is carried out in triplicate. The Ka value is derived from a Lineweaver-Burkeplot. Rel. Vmax =(Vmax drug/Vmax vasopressin)×100. Ki =I/[Ka'/Ka)-1] where I is the concentration of the antagonist, and Ka' and Ka are the concentrations of vasopressin required to give half maximal activity of adenylate cyclase in the presence and absence of antagonist, respectively.

[4] = target: vasopressin stimulated adenylate cyclase; experiment: Vasopressin stimulated adenylate cyclase activity, human kidney medullary tissue; format: biochemical; conditions: human kidney medullary membrane
Experimental: as §1

T1 sequence (P32307 whole entry): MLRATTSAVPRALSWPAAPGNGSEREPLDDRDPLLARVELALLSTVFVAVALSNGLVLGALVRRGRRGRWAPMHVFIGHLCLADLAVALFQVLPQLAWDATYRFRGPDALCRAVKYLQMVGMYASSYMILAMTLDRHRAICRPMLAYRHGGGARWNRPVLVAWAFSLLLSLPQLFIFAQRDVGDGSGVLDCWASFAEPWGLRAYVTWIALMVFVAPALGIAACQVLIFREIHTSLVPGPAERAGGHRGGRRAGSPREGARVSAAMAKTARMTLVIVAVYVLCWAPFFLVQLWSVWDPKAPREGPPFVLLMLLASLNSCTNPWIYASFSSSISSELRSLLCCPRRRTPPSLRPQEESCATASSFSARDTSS

Kb [1] [nM]	Ki [3] [nM]	Ki [4] [nM]	SMILES	Rat ED300 [2] [mg/kg]
9.2	6.4	7.5	CCOc1ccc(C[C@H]2NC(=O)CC3(CCCCC3)SSC[C@@H](C(=O)N3CCC[C@H]3C(=O)NCCCCN)NC(=O)[C@H](CC(N)=O)NC(=O)[C@H](C(C)C)NC(=O)[C@H](Cc3ccccc3)NC2=O)cc1 [C, [1-(β-Mercapto-β,β -cyclopentamethylenepropionic acid)-2-(O--ethyl-D-tyrosine)-4-valine-8-(1,4-diaminobutane)-8-desarginine-9-desglycinamide]-vasopressin] ([dY](Et)FVNCP-{NH(CH2)4NH2}; linker N-5 via X1)	0.019
410			CCOc1ccc(C[C@H]2NC(=O)CC3(CCCCC3)SSC[C@@H](C(=O)N3CCC[C@H]3C(=O)O)NC(=O)[C@H](CC(N)=O)NC(=O)[C@H](C(C)C)NC(=O)[C@H](Cc3ccccc3)NC2=O)cc1 [D, [1-(β-Mercapto-β,β -cyclopentamethylenepropionic acid)-2-(O--ethyl-D-tyrosine)-4-valine-8-desarginine-9-desglycinamide]-vasopressin] ([dY](Et)FVNCP-OH; linker N-5 via X1)	
19			CCOc1ccc(C[C@H]2NC(=O)CC3(CCCCC3)SSC[C@@H](C(=O)NCCCCCN)NC(=O)[C@H](CC(N)=O)NC(=O)[C@H](C(C)C)NC(=O)[C@H](Cc3ccccc3)NC2=O)cc1 [F, [1-(β-Mercapto-β,β -cyclopentamethylenepropionic acid)-2-(O--ethyl-D-tyrosine)-4-valine-7-desproline-8-desarginine-9-desglycinamide-7-(1,5-diaminopentane)]-vasopressin]	

Further lines, the compound ahead of its results:

SMILES	Kb [1] [nM]	Ki [3] [nM]	Ki [4] [nM]	Rat ED300 [2] [mg/kg]
CC(C)[C@@H]1NC(=O)[C@H](Cc2ccccc2)NC(=O)[C@@H](Cc2ccc(O)cc2)NC(=O)CC2(CCCCC2)SSC[C@@H](C(=O)N2CCC[C@H]2C(=O)NCCCCCN)NC(=O)[C@H](CC(N)=O)NC1=O [A, [1-(β-Mercapto-β,β -cyclopentamethylenepropionic acid)-2-D-tyrosine-4-valine-8-(1,5-diaminopentane)-8-desarginine-9-desglycineamide]-vasopressin] (HELM PEPTIDE1{[dY].F.V.N.C.P.[NCCCCCN[*:1]]}|CHEM1{[O=C(CC1(S[*:2])CCCCC1)[*:1]]}$PEPTIDE1,CHEM1,1:R1-1:R1|PEPTIDE1,CHEM1,5:R3-1:R2$$$V2.0)	220			
CCOc1ccc(C[C@H]2NC(=O)CC3(CCCCC3)SSC[C@@H](C(=O)N3CCC[C@H]3C(=O)NCCCCCN)NC(=O)[C@H](CC(N)=O)NC(=O)[C@H](C(C)C)NC(=O)[C@H](Cc3ccccc3)NC2=O)cc1 [B, [1-(β-Mercapto-β,β -cyclopentamethylenepropionic acid)-2-(O--ethyl-D-tyrosine)-4-valine-8-(1,5-diaminopentane)-8-desarginine-9-desglycinamide]-vasopressin] ([dY](Et)FVNCP-{NH(CH2)5NH2}; linker N-5 via X1)	29			
CC(C)[C@@H]1NC(=O)[C@H](Cc2ccccc2)NC(=O)[C@@H](Cc2ccc(O)cc2)NC(=O)CC2(CCCCC2)SSC[C@@H](C(=O)N2CCC[C@H]2C(=O)O)NC(=O)[C@H](CC(N)=O)NC1=O [E, [1-(β-Mercapto-β,β -cyclopentamethylenepropionic acid)-2-D-tyrosine-4-valine-8-desarginine-9-desglycinamide]-vasopressin] (HELM PEPTIDE1{[dY].F.V.N.C.P}|CHEM1{[O=C(CC1(S[*:2])CCCCC1)[*:1]]}$PEPTIDE1,CHEM1,1:R1-1:R1|PEPTIDE1,CHEM1,5:R3-1:R2$$$V2.0)	17000			
CCOc1ccc(C[C@H]2NC(=O)CC3(CCCCC3)SSC[C@@H](C(=O)N3CCC[C@H]3C(=O)NCCCCN=C(N)N)NC(=O)[C@H](CC(N)=O)NC(=O)[C@H](C(C)C)NC(=O)[C@H](Cc3ccccc3)NC2=O)cc1 [G, [1-(β-Mercapto-β,β -cyclopentamethylenepropionic acid)-2-(O--ethyl-D-tyrosine)-4-valine-8-desarginine-9-desglycinamide-8-(1,4-aminoguanidinobutane)]-vasopressin] ([dY](Et)FVNCP-Agmatine; linker N-5 via X1)	14			
